# Experimental data as given in PubChem BioAssay (NCI).
#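 Assay format: 96-well plates, 48-hour exposure. At the GI50, growth is halved. TGI denotes the concentration required for complete inhibition of growth.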
# Assays:
# Assay in all cases: inhibition of tumour cell growth, NCI panel, 48 h
# A549 NSCLC = tested on: A549 NSCLC
# COLO 205 colon = tested on: COLO 205 colon
# HOP-62 NSCLC = tested on: HOP-62 NSCLC
# KM12 colon = tested on: KM12 colon
# MCF7 breast = tested on: MCF7 breast
# MOLT-4 leukemia = tested on: MOLT-4 leukemia
# NCI/ADR-RES ovarian = tested on: NCI/ADR-RES ovarian
# PC-3 prostate = tested on: PC-3 prostate
# SR leukemia = tested on: SR leukemia
# UO-31 renal = tested on: UO-31 renal
SMILES,GI50 (A549 NSCLC) [µM],TGI (A549 NSCLC) [µM],GI50 (COLO 205 colon) [µM],TGI (COLO 205 colon) [µM],GI50 (HOP-62 NSCLC) [µM],TGI (HOP-62 NSCLC) [µM],GI50 (KM12 colon) [µM],TGI (KM12 colon) [µM],GI50 (MCF7 breast) [µM],TGI (MCF7 breast) [µM],GI50 (MOLT-4 leukemia) [µM],TGI (MOLT-4 leukemia) [µM],GI50 (NCI/ADR-RES ovarian) [µM],TGI (NCI/ADR-RES ovarian) [µM],GI50 (PC-3 prostate) [µM],TGI (PC-3 prostate) [µM],GI50 (SR leukemia) [µM],TGI (SR leukemia) [µM],GI50 (UO-31 renal) [µM],TGI (UO-31 renal) [µM]
COc1ccc(C(=O)c2sc3nc(-c4cccs4)ccc3c2N)cc1OC,4.71,> 100,5.35,> 100,17.6,> 100,4.42,> 100,2.79,> 100,3.78,18,3.61,> 100,3.65,> 100,3.26,22.7,4.56,> 100
COC(=O)C(C(=O)OC)C(Br)C(Br)C(Br)c1ccccc1 (stereo not given),16.8,32.6,2.14,4.62,16.9,36,17,32.4,2.43,9.68,4.11,16.8,17.8,42.4,11.5,24.6,2.47,6.39,1.74,3.42
Cc1[nH]c2cc(F)ccc2c1-c1nc2c3cccnc3c3ncccc3c2[nH]1,0.381,2.35,0.178,1.26,0.27,1.27,0.379,1.78,0.319,1.65,0.17,0.642,0.55,5.37,0.183,2.93,0.0723,0.797,0.266,0.929
CC(=O)O[C@H]1CC[C@@]2(C)C(=C/C(=N/OCCN3CCCC3)[C@H]3[C@@H]4CC[C@H](OC(C)=O)[C@@]4(C)CC[C@@H]32)C1,63.3,> 100,18.5,34.9,29.2,> 100,40.7,> 100,53.4,> 100,29.6,84.3,> 100,> 100,40.5,> 100,10.4,44.1,20.8,53.3
O=C(/C=C(\C(=O)c1cccs1)c1cccs1)c1ccc(C(=O)/C=C(\C(=O)c2cccs2)c2cccs2)cc1,–,> 100,–,> 100,–,> 100,–,> 100,–,> 100,–,> 100,–,> 100,–,> 100,–,> 100,–,> 100
N#CC(C#N)=C/C=C(\Sc1ccc(F)cc1Cl)c1ccc(Cl)cc1,2.22,12.5,0.515,5.02,0.904,3.42,0.714,2.79,0.417,2.55,0.194,> 100,0.791,7.53,1.42,10.4,0.0756,> 100,1.78,> 40.3
Nc1nc(N)c2nc3c(nc2n1)CCCCCCCCCC3,0.407,> 100,6.83,> 100,4.47,> 100,8.6,> 100,2.96,> 100,3.83,> 100,2.4,> 100,5.73,> 100,5.03,> 100,1.88,> 100
